Results: ChEMBL document CHEMBL1127385, “Synthesis and diuretic activity of alkyl- and arylguanidine analogs of N,N'-dicyclohexyl-4-morpholinecarboxamidine in rats and dogs” (J Med Chem, 1994)
Blank lines part the entries; values can stand above or below the molecule they belong to.

Tests used:
Settings in all cases: in vivo, po
Rattus norvegicus [1] = experiment: Ratio of Total electrolytic excretion of sodium and potassium in urine of rats after peroral administration of 77.7 uM/Kg of drug; assay type: ADME, organism-based
Rattus norvegicus [2] = experiment: Total electrolytic excretion of chlorine in urine of rats after peroral administration of 259 uM/Kg of drug; assay type: ADME, organism-based
Rattus norvegicus [3] = experiment: Total electrolytic excretion of sodium in urine of rats after peroral administration of 259 uM/Kg of drug; assay type: ADME, organism-based
Rattus norvegicus [4] = experiment: Total electrolytic excretion of potassium in urine of rats after peroral administration of 25.9 uM/Kg of drug; assay type: ADME, organism-based
Rattus norvegicus [5] = experiment: Ratio of Total electrolytic excretion of sodium and potassium in urine of rats after peroral administration of 25.9 uM/Kg of drug; assay type: ADME, organism-based
Rattus norvegicus [6] = experiment: Tested for the diuretic activity by measuring the urinary volume after peroral administering 25.9 uM/Kg of drug in rats; assay type: ADME, organism-based, Urine
Rattus norvegicus [7] = experiment: Total electrolytic excretion of potassium in urine of rats after peroral administration of 77.5 uM/Kg of drug; assay type: ADME, organism-based
Rattus norvegicus [8] = experiment: Total electrolytic excretion of chlorine in urine of rats after peroral administration of 25.9 uM/Kg of drug; assay type: ADME, organism-based
Rattus norvegicus [9] = experiment: Tested for the diuretic activity by measuring the urinary volume after peroral administering 259 uM/Kg of drug in rats; assay type: ADME, organism-based, Urine
Rattus norvegicus [10] = experiment: Total electrolytic excretion of chlorine in urine of rats after peroral administration of 77.5 uM/Kg of drug; assay type: ADME, organism-based
Rattus norvegicus [11] = experiment: Total electrolytic excretion of sodium in urine of rats after peroral administration of 25.9 uM/Kg of drug; assay type: ADME, organism-based
Rattus norvegicus [12] = experiment: Total electrolytic excretion of sodium in urine of rats after peroral administration of 77.5 uM/Kg of drug; assay type: ADME, organism-based
Rattus norvegicus [13] = experiment: Ratio of Total electrolytic excretion of sodium and potassium in urine of rats after peroral administration of 259 uM/Kg of drug; assay type: ADME, organism-based
Rattus norvegicus [14] = experiment: Total electrolytic excretion of potassium in urine of rats after peroral administration of 259 uM/Kg of drug; assay type: ADME, organism-based
Rattus norvegicus [15] = experiment: Tested for the diuretic activity by measuring the urinary volume after peroral administering 77.5 uM/Kg of drug in rats; assay type: ADME, organism-based, Urine
Rattus norvegicus [16] = experiment: Total electrolytic excretion of chlorine in urine of rats after peroral administration of 289 uM/Kg of drug; assay type: ADME, organism-based
Rattus norvegicus [17] = experiment: Tested for the diuretic activity by measuring the urinary volume after peroral administering 28.9 uM/Kg of drug in rats; assay type: ADME, organism-based, Urine
Rattus norvegicus [18] = experiment: Total electrolytic excretion of chlorine in urine of rats after peroral administration of 28.9 uM/Kg of drug; assay type: ADME, organism-based
Rattus norvegicus [19] = experiment: Total electrolytic excretion of potassium in urine of rats after peroral administration of 28.9 uM/Kg of drug; assay type: ADME, organism-based
Rattus norvegicus [20] = experiment: Ratio of Total electrolytic excretion of sodium and potassium in urine of rats after peroral administration of 86.9 uM/Kg of drug; assay type: ADME, organism-based
Rattus norvegicus [21] = experiment: Ratio of Total electrolytic excretion of sodium and potassium in urine of rats after peroral administration of 28.9 uM/Kg of drug; assay type: ADME, organism-based
Rattus norvegicus [22] = experiment: Ratio of Total electrolytic excretion of sodium and potassium in urine of rats after peroral administration of uM/Kg of drug; assay type: ADME, organism-based
Rattus norvegicus [23] = experiment: Total electrolytic excretion of potassium in urine of rats after peroral administration of 86.9 uM/Kg of drug; assay type: ADME, organism-based
Rattus norvegicus [24] = experiment: Tested for the diuretic activity by measuring the urinary volume after peroral administering 289 uM/Kg of drug in rats; assay type: ADME, organism-based, Urine
Rattus norvegicus [25] = experiment: Total electrolytic excretion of sodium in urine of rats after peroral administration of 289 uM/Kg of drug; assay type: ADME, organism-based
Rattus norvegicus [26] = experiment: Total electrolytic excretion of sodium in urine of rats after peroral administration of 86.9 uM/Kg of drug; assay type: ADME, organism-based
Rattus norvegicus [27] = experiment: Total electrolytic excretion of sodium in urine of rats after peroral administration of 28.9 uM/Kg of drug; assay type: ADME, organism-based
Rattus norvegicus [28] = experiment: Total electrolytic excretion of potassium in urine of rats after peroral administration of 289 uM/Kg of drug; assay type: ADME, organism-based
Rattus norvegicus [29] = experiment: Tested for the diuretic activity by measuring the urinary volume after peroral administering 86.9 uM/Kg of drug in rats; assay type: ADME, organism-based, Urine
Rattus norvegicus [30] = experiment: Total electrolytic excretion of chlorine in urine of rats after peroral administration of 86.9 uM/Kg of drug; assay type: ADME, organism-based

- Ratio (Rattus norvegicus [1]): 7.1
- Excretion Cl- (Rattus norvegicus [2]): 1.05 m equiv
- Excretion Na+ (Rattus norvegicus [3]): 1.17 m equiv
- Excretion K+ (Rattus norvegicus [4]): 0.26 m equiv
- Ratio (Rattus norvegicus [5]): 5.5
- V (Rattus norvegicus [6]): 8.7 mL
- Excretion K+ (Rattus norvegicus [7]): 0.27 m equiv
- Excretion Cl- (Rattus norvegicus [8]): 1.5 m equiv
- V (Rattus norvegicus [9]): 5 mL
- Excretion Cl- (Rattus norvegicus [10]): 1.99 m equiv
- Excretion Na+ (Rattus norvegicus [11]): 1.45 m equiv
- Excretion Na+ (Rattus norvegicus [12]): 1.89 m equiv
- Ratio (Rattus norvegicus [13]): 7.5
- Excretion K+ (Rattus norvegicus [14]): 0.16 m equiv
- V (Rattus norvegicus [15]): 11.8 mL
Structure (SMILES): C1CCCC(/N=C(/NC2CCCCCCC2)N2CCOCC2)CCC1

- Excretion Cl- (Rattus norvegicus [16]): 1.51 m equiv
- V (Rattus norvegicus [17]): 9.1 mL
- Excretion Cl- (Rattus norvegicus [18]): 1.49 m equiv
- Excretion K+ (Rattus norvegicus [19]): 0.36 m equiv
- Ratio (Rattus norvegicus [20]): 5.7
- Ratio (Rattus norvegicus [21]): 3.7
- Ratio (Rattus norvegicus [22]): 5.5
- Excretion K+ (Rattus norvegicus [23]): 0.32 m equiv
- V (Rattus norvegicus [24]): 9.2 mL
- Excretion Na+ (Rattus norvegicus [25]): 1.59 m equiv
- Excretion Na+ (Rattus norvegicus [26]): 1.81 m equiv
- Excretion Na+ (Rattus norvegicus [27]): 1.32 m equiv
- Excretion K+ (Rattus norvegicus [28]): 0.27 m equiv
- V (Rattus norvegicus [29]): 11.3 mL
- Excretion Cl- (Rattus norvegicus [30]): 1.78 m equiv
Structure (SMILES): C1CCC(/N=C(/NC2CCCCC2)N2CCSCC2)CC1
